# Target: recombinant USP30 (amino acids 57-517 of the human sequence) (Homo sapiens (Human), UniProt Q70CQ3)
# Test: In vitro USP30 biochemical assay (Ubiquitin-Rhodamine substrate)
# Settings: fluorescence
# Method: In vitro biochemical assay to establish the potency of compounds for USP30 inhibition: a 384-well plate assay using a fluorophore tagged substrate of USP30 was used for in vitro screening of compounds. Each compound was tested at
# 10 different concentrations (0.5 to 10,000 nM) in duplicate wells. […] Data were analyzed using Graph Pad Prism software with a four-parameter (floating slope) fit to log concentration data to determine IC50s.
# [1] = 1.5 nM recombinant USP30, 25 nM Ubiquitin-Rhodamine
# [2] = […] recombinant USP30, 25 nM Ubiquitin-Rhodamine
# recombinant USP30 (amino acids 57-517 of the human sequence), sequence (Q70CQ3 57-517): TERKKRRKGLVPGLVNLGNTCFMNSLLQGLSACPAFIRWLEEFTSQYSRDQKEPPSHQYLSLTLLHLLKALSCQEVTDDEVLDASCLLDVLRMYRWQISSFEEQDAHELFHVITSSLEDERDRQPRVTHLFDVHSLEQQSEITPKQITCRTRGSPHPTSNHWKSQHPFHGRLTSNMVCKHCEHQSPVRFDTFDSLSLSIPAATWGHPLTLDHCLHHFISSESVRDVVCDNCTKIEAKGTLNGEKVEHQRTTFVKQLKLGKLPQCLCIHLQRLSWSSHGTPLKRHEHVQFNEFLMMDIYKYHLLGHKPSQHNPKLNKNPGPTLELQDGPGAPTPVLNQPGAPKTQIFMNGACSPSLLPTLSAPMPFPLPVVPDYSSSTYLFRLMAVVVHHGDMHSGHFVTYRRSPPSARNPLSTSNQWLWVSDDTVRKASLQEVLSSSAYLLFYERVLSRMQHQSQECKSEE
SMILES,IC50 [1] [µM],IC50 [2] [µM]
CC(C)C[C@H](NC(=O)c1ccc(F)cc1)C(=O)Nc1ccc(S(=O)(=O)NC(C)(C)C(F)(F)F)cc1 [Compound I-221],0.05 to 1,
O=C(N[C@@H](Cc1ccccc1)C(=O)Nc1ccc(S(=O)(=O)NCc2ccncn2)cc1)c1ccc(F)cc1 [Compound I-222],0.05 to 1,
O=C(N[C@@H](Cc1ccccc1)C(=O)Nc1ccc(S(=O)(=O)NCc2cnccn2)cc1)c1ccc(F)cc1 [Compound I-223],0.05 to 1,
Cn1nccc1CNS(=O)(=O)c1ccc(NC(=O)[C@H](CC2CCNCC2)NC(=O)c2ccc(F)cc2)cc1 [Compound I-224],0.05 to 1,
CC(C)C[C@H](NC(=O)c1ccc(F)cc1)C(=O)Nc1ccc(S(=O)(=O)NCc2ccnn2C)cc1 [Compound I-225],0.05 to 1,
O=C(N[C@@H](Cc1ccccc1)C(=O)Nc1ccc(S(=O)(=O)NCc2ccn[nH]2)cc1)c1ccc(F)cc1 [Compound I-226],0.05 to 1,
O=C(N[C@@H](Cc1ccccc1)C(=O)Nc1ccc(S(=O)(=O)NCc2ncccn2)cc1)c1ccc(F)cc1 [Compound I-228],0.05 to 1,
CN(C(=O)c1ccc(F)cc1)[C@@H](Cc1ccccc1)C(=O)Nc1ccc(S(=O)(=O)NCc2ccnn2C)cc1 [Compound I-229],1 to 10,
CC(C)C[C@H](NC(=O)c1ccc(F)cc1)C(=O)Nc1ccc(S(=O)(=O)NC(C)(C)CF)cc1 [Compound I-230],0.05 to 1,
CN1CCC(C[C@H](NC(=O)c2ccc(F)cc2)C(=O)Nc2ccc(S(=O)(=O)NCc3ccnn3C)cc2)CC1 [Compound I-231],0.05 to 1,
O=C(N[C@@H](Cc1ccccc1)C(=O)Nc1ccc(S(=O)(=O)NCc2nnc[nH]2)cc1)c1ccc(F)cc1 [Compound I-232],1 to 10,
CC(C)(C)NS(=O)(=O)c1ccc(NC(=O)[C@H](Cc2ccccc2)NC(=O)C2CCN(C#N)CC2)cc1 [Compound I-233],0.05 to 1,
CN1CCC(C[C@H](NC(=O)c2ccc(F)cc2)[C@@H](O)CNc2ccc(S(=O)(=O)NC(C)(C)C)cc2)CC1 [Compound I-234],1 to 10,
CC(C)(C)NS(=O)(=O)c1ccc(NC[C@H](O)[C@H](CC2CCNCC2)NC(=O)c2ccc(F)cc2)cc1 [Compound I-235],1 to 10,
CC(C)(C)NS(=O)(=O)c1ccc(NC[C@H](O)[C@H](Cc2ccncc2)NC(=O)c2ccc(F)cc2)cc1 [Compound I-236],0.05 to 1,
Cn1nccc1CCNS(=O)(=O)c1ccc(NC(=O)[C@H](Cc2ccccc2)NC(=O)c2ccc(F)cc2)cc1 [Compound I-237],0.05 to 1,
Cn1cnc(CNS(=O)(=O)c2ccc(NC(=O)[C@H](Cc3ccccc3)NC(=O)c3ccc(F)cc3)cc2)c1 [Compound I-238],,< 0.05
O=C(N[C@@H](Cc1ccccc1)C(=O)Nc1ccc(S(=O)(=O)NCc2cnc[nH]2)cc1)c1ccc(F)cc1 [Compound I-239],0.05 to 1,
CN(C)CC[C@H](NC(=O)c1ccc(F)cc1)C(=O)Nc1ccc(S(=O)(=O)NC(C)(C)C)cc1 [Compound I-240],0.05 to 1,
N#CN1CC(NC(=O)[C@H](Cc2ccccc2)NC(=O)c2ccc(F)cc2)C1 [Compound I-241],0.05 to 1,

SMILES,IC50 [1] [µM],IC50 [2] [µM]
CC(C)(C)NS(=O)(=O)c1ccc(NC(=O)[C@H](CCO)NC(=O)c2ccc(F)cc2)cc1 [Compound I-242],0.05 to 1,
CC(C)(C)NS(=O)(=O)c1ccc(NC(=O)[C@H](CC#N)NC(=O)c2ccc(F)cc2)cc1 [Compound I-243],0.05 to 1,
CC(C)(C)NS(=O)(=O)c1ccc(NC(=O)C(CC(N)=O)NC(=O)c2ccc(F)cc2)cc1 (stereo not drawn) [Compound I-244],,> 10
CC(C)(C)NS(=O)(=O)c1ccc(NC(=O)C2CCCCN2C(=O)c2ccc(F)cc2)cc1 (stereo not drawn) [Compound I-245],,> 10
N#CC1CC[C@@H](NC(=O)[C@H](Cc2ccccc2)NC(=O)c2ccc(F)cc2)C1 (stereo partly drawn) [Compound I-246],,> 10
CC(C)C[C@H](NC(=O)c1ccccc1)C(=O)NC1CN(C(=O)OCc2ccccc2)C1 [Compound I-247],1 to 10,
CC(C)C[C@H](NC(=O)c1ccc(F)cc1)C(=O)NC1CN(C(=O)OCc2ccccc2)C1 [Compound I-248],,> 10
CC(C)C[C@H](NC(=O)c1ccccc1)C(=O)NC1CN(C#N)C1 [Compound I-249],,< 0.05
CC1(NC(=O)[C@H](Cc2ccccc2)NC(=O)c2ccc(F)cc2)CN(C#N)C1 [Compound I-250],,< 0.05
CC(C)C[C@H](NC(=O)c1ccc(F)cc1)C(=O)NC1CN(C#N)C1 [Compound I-251],,< 0.05
CC1(NC(=O)[C@H](Cc2ccccc2)NC(=O)c2ccc(F)cc2)CN(C(=O)OCc2ccccc2)C1 [Compound I-252],,> 10
CC(C)(C)NS(=O)(=O)c1ccc(NC(=O)[C@@H]2C[C@@H](C3CCCCC3)CN2C(=O)c2ccc(F)cc2)cc1 [Compound I-253],0.05 to 1,
CC(C)(CO)NS(=O)(=O)c1ccc(NC(=O)[C@@H]2C[C@@H](C3CCCCC3)CN2C(=O)c2ccc(F)cc2)cc1 [Compound I-254],1 to 10,
COc1cc(NC(=O)[C@@H]2C[C@@H](C3CCCCC3)CN2C(=O)c2ccc(F)cc2)cnc1S(=O)(=O)NC(C)(C)C [Compound I-255],1 to 10,
COc1cc(NC(=O)[C@@H]2C[C@@H](C3CCCCC3)CN2C(=O)c2ccc(F)cc2)cnc1S(=O)(=O)NC(C)(C)CO [Compound I-256],,> 10
COc1cc(NC(=O)[C@@H]2C[C@@H](C3CCCCC3)CN2C(=O)c2ccc(F)cc2)ccc1S(=O)(=O)NC(C)(C)C [Compound I-257],0.05 to 1,
CC(C)(CO)NS(=O)(=O)c1ccc(NC(=O)[C@@H]2C[C@@H](C3CCCCC3)CN2C(=O)c2ccc(F)cc2)cn1 [Compound I-258],1 to 10,
COc1cc(NC(=O)[C@@H]2C[C@@H](C3CCCCC3)CN2C(=O)c2ccc(F)cc2)ccc1S(=O)(=O)NC(C)(C)CO [Compound I-259],0.05 to 1,
CC(C)(C)NS(=O)(=O)c1ccc(NC(=O)[C@@H]2C[C@@H](C3CCCCC3)CN2C(=O)c2ccc(F)cc2)cn1 [Compound I-260],0.05 to 1,

# Other lines, results leading:
IC50 [1] [µM],IC50 [2] [µM],SMILES
1 to 10,,O=C(Nc1ccc(S(=O)(=O)N[C@@H]2CCOC2)cc1)[C@@H]1C[C@@H](c2ccccc2)CN1C(=O)c1ccc(F)cc1 [Compound I-261]
1 to 10,,CC(C)(CO)NS(=O)(=O)c1ccc(NC(=O)[C@@H]2C[C@@H](c3ccccc3)CN2C(=O)c2ccc(F)cc2)cc1 [Compound I-262]
1 to 10,,O=C(Nc1ccc(S(=O)(=O)NC2COC2)cc1)[C@@H]1C[C@@H](c2ccccc2)CN1C(=O)c1ccc(F)cc1 [Compound I-263]
,> 10,CC(C)(C)NS(=O)(=O)c1ccc(NC(=O)[C@@H]2C[C@@H](O)CN2C(=O)c2ccc(F)cc2)cc1 [Compound I-264]
0.05 to 1,,COc1cc(NC(=O)[C@@H]2C[C@@H](c3ccccc3)CN2C(=O)c2ccc(F)cc2)ccc1S(=O)(=O)NC1COC1 [Compound I-265]
1 to 10,,CO[C@@H]1C[C@@H](C(=O)Nc2ccc(S(=O)(=O)NC(C)(C)C)cc2)N(C(=O)c2ccc(F)cc2)C1 [Compound I-267]
,> 10,CO[C@@H]1C[C@@H](C(=O)Nc2ccc(S(=O)(=O)NC(C)(C)CO)cc2)N(C(=O)c2ccc(F)cc2)C1 [Compound I-268]
1 to 10,,O=C(Nc1ccc(S(=O)(=O)N[C@@H]2CCOC2)nc1)[C@@H]1C[C@@H](c2ccccc2)CN1C(=O)c1ccc(F)cc1 [Compound I-270]
1 to 10,,O=C(Nc1ccc(S(=O)(=O)NC2COC2)nc1)[C@@H]1C[C@@H](c2ccccc2)CN1C(=O)c1ccc(F)cc1 [Compound I-271]
,> 10,CC(C)(CO)NS(=O)(=O)c1ccc(NC(=O)[C@@H]2C[C@@H](O)CN2C(=O)c2ccc(F)cc2)cc1 [Compound I-275]
,> 10,O=C(Nc1ccc(S(=O)(=O)NC2COC2)cc1)[C@@H]1C[C@@H](O)CN1C(=O)c1ccc(F)cc1 [Compound I-276]
0.05 to 1,,CO[C@@H]1C[C@@H](C(=O)Nc2ccc(S(=O)(=O)N[C@@H]3CCOC3)cc2)N(C(=O)c2ccc(F)cc2)C1 [Compound I-277]
,> 10,CO[C@@H]1C[C@@H](C(=O)Nc2ccc(S(=O)(=O)NC3COC3)cc2)N(C(=O)c2ccc(F)cc2)C1 [Compound I-278]
1 to 10,,CC(C)(C)NS(=O)(=O)c1ccc(NC(=O)[C@@H]2C[C@H](O)CN2C(=O)c2ccc(F)cc2)cc1 [Compound I-279]
,> 10,CC(C)(CO)NS(=O)(=O)c1ccc(NC(=O)[C@@H]2C[C@H](O)CN2C(=O)c2ccc(F)cc2)cc1 [Compound I-280]
,> 10,O=C(Nc1ccc(S(=O)(=O)NC2COC2)cc1)[C@@H]1C[C@H](O)CN1C(=O)c1ccc(F)cc1 [Compound I-281]
,> 10,O=C(Nc1ccc(S(=O)(=O)N[C@@H]2CCOC2)cc1)[C@@H]1C[C@H](O)CN1C(=O)c1ccc(F)cc1 [Compound I-282]
0.05 to 1,,CC(C)(C)NS(=O)(=O)c1ccc(NC(=O)[C@@H]2C[C@H](c3ccccc3)CN2C(=O)c2ccc(F)cc2)cc1 [Compound I-283]
,> 10,CC(=O)O[C@H]1C[C@@H](C(=O)Nc2ccc(S(=O)(=O)N[C@@H]3CCOC3)cc2)N(C(=O)c2ccc(F)cc2)C1 [Compound I-284]
1 to 10,,CC(=O)O[C@H]1C[C@@H](C(=O)Nc2ccc(S(=O)(=O)NC(C)(C)C)cc2)N(C(=O)c2ccc(F)cc2)C1 [Compound I-285]
1 to 10,,CC(=O)O[C@@H]1C[C@@H](C(=O)Nc2ccc(S(=O)(=O)N[C@@H]3CCOC3)cc2)N(C(=O)c2ccc(F)cc2)C1 [Compound I-286]
,< 0.05,CC(C)N1CCC(C[C@H](NC(=O)c2ccc(F)cc2)C(=O)Nc2ccc(S(=O)(=O)NC(C)(C)C)cc2)CC1 [Compound I-287]
,> 10,CO[C@H]1C[C@@H](C(=O)Nc2ccc(S(=O)(=O)N[C@@H]3CCOC3)cc2)N(C(=O)c2ccc(F)cc2)C1 [Compound I-288]
,> 10,CO[C@H]1C[C@@H](C(=O)Nc2ccc(S(=O)(=O)NC3COC3)cc2)N(C(=O)c2ccc(F)cc2)C1 [Compound I-289]
